Where two headings read alike, the source gives them in different places.

The subject of experiment [1] is thrombus formation in an arteriovenous shunt. The experiment is described as follows: Arteriovenous shunt model (rat), antithrombotic effect. It counts as in vivo. As to the method: b.1) Arteriovenous Shunt Model (Rat) Fasting male rats (strain: HSD CPB:WU) weighing 200-250 g were anesthetized with a Rompun/Ketavet solution (12 mg/kg/50 mg/kg). Thrombus formation was induced in an arteriovenous shunt by a method based on that described by Christopher N. Berry et al., Br. J. Pharmacol. (1994), 113, 1209-1214. For this purpose, the left jugular vein and the right carotid artery were exposed. An extracorporeal shunt was formed between the two vessels using a 10 cm-long polyethylene tube (PE 60). This polyethylene tube was secured in the middle by tying in a further 3 cm-long polyethylene tube (PE 160) which contained a roughened nylon thread forming a loop to produce a thrombogenic surface. The extracorporeal circulation was maintained for 15 minutes. The shunt was then removed and the nylon thread with the thrombus was immediately weighed. The blank weight of the nylon thread had been found before the start of the experiment. The test substances were administered either intravenously through the tail vein or orally by gavage to conscious animals before setting up the extracorporeal circulation.

For the next experiment, the target named is human factor Xa (FXa) (Homo sapiens, UniProt P00742). Kind of experiment: Measurement of factor Xa inhibition (chromogenic substrate). The class given is biochemical. As to the method: a.1) Measurement of Factor Xa Inhibition
In this case, factor Xa eliminates p-nitroaniline from the chromogenic substrate.
The test substances were dissolved in various concentrations in DMSO and incubated with human FXa (0.5 nmol/l dissolved in 50 mmol/l tris buffer [C,C,C-tris(hydroxymethyl)-aminomethane], 150 mmol/l NaCl, 0.1% BSA (bovine serum albumine), pH=8,3) at 25° C. for 10 minutes. Pure DMSO serves as control.

The subject of experiment [2] is thrombus in the carotid artery of rats. The experiment is described as follows: Rat thrombosis model (FeCl3-induced carotid artery thrombus), combinations. The class given is in vivo. Conditions: 1 mg/kg of each active ingredient; for Reduction in thrombus weight after oral treatment: 10 rats per group; for Reduction in thrombus weight after oral treatment / Statistical significance of the reduction in thrombus weight (Student's t-test): oral; for Statistical significance of the reduction in thrombus weight (Student's t-test): p<0.05 regarded as significant; for Antithrombotic effect: single dosage or combination. As to the method: a) In vivo Investigations in a Rat Thrombosis Model The carotid artery of rats (HSD CPB:WU, Harlan Winkelmann) was exposed under anesthesia. A piece of filter paper impregnated with an aqueous 10% strength FeCl3 solution (dissolved in 1N aqueous hydrochloric acid) was cautiously pushed underneath the exposed vessel in accordance with the method described by Kurz et al. […] After 3 minutes, the piece of filter paper was removed. The carotid artery was removed after 15 minutes, and the thrombus was detached and immediately weighed. […] The animals in the control group had been treated with the corresponding solvent. The statistical significance was calculated using Student's t-test. Values with p<0.05 are regarded as a statistically significant effect (Medical Statistics, M J Campbell, […], Second Edition, John Wiley & Sons).

Where [3] appears, read: intravenous administration, read-out: ED50 [mg/kg] i.v.
The mark [4] stands for this setting: oral administration, read-out: ED50 [mg/kg] p.o.

Sequence of human factor Xa (FXa) (P00742 235-488 limits assumed): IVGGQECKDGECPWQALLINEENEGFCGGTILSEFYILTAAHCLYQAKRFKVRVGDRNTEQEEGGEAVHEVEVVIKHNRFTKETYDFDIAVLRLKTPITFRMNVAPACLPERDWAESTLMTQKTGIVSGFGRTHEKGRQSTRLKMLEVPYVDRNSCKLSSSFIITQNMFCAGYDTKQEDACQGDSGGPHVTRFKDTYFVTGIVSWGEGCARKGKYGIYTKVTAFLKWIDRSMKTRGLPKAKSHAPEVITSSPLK
Sequence of human factor Xa (FXa) (P00742 41-179 partner limits assumed): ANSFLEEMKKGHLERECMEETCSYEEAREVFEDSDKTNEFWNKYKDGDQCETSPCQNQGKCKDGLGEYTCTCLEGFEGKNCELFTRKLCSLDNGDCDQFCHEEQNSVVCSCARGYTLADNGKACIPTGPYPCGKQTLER

In the case of `O=C(NC[C@H]1CN(c2ccc(N3CCOCC3)c(F)c2)C(=O)O1)c1ccc(Cl)s1` [Example 1, 5-chloro-N-{[(5S)-3-(3-fluoro-4-morpholinophenyl)-2-oxo-1,3-oxazolidin-5-yl]methyl}-2-thiophenecarboxamide], in experiment [1] (setting [3]), the ED50 was determined as 10 mg/kg.

`O=C(NC[C@H]1CN(c2ccc(N3CCCCC3=O)cc2)C(=O)O1)c1ccc(Cl)s1` [Example 162, 5-Chloro-N-({(5S)-2-oxo-3-[4-(2-oxo-1-piperidinyl)phenyl]-1,3-oxazolidin-5-yl}-methyl)-2-thiophenecarboxamide] came in with an IC50 at human factor Xa (FXa) (factor Xa inhibition) of 2.8 nM. Also, the ED50 in experiment [1] (setting [3]) amounted to 3 mg/kg.

Regarding `O=C(NCC1CN(c2ccc(N3CCOCC3=O)c(C(F)(F)F)c2)C(=O)O1)c1ccc(Cl)s1` (stereo not shown) [Example 114, 5-Chloro-N-({2-oxo-3-[4-(3-oxo-4-morpholinyl)-3-(trifluoromethyl)phenyl]-1,3-oxazolidin-5-yl}methyl)-2-thiophenecarboxamide], the ED50 in experiment [1] (setting [3]) is 3 mg/kg.

As to `Cc1cc(N2CC(CNC(=O)c3ccc(Cl)s3)OC2=O)ccc1N1CCOCC1=O` (stereo not shown) [Example 115, 5-Chloro-N-({3-[3-methyl-4-(3-oxo-4-morpholinyl)phenyl]-2-oxo-1,3-oxazolidin-5-yl}methyl)-2-thiophenecarboxamide], the ED50 in experiment [1] (setting [3]) came to 3 mg/kg.

Take `O=C(NC[C@H]1CN(c2ccc(N3CCCC3=O)cc2)C(=O)O1)c1ccc(Cl)s1` [Example 17, 5-Chloro-N-({(5S)-2-oxo-3-[4-(2-oxo-1-pyrrolidinyl)phenyl]-1,3-oxazolidin-5-yl}methyl)-2-thiophenecarboxamide]: the ED50 in experiment [1] (setting [3]) is 6 mg/kg.

Regarding `Nc1cc(N2CC(CNC(=O)c3ccc(Cl)s3)OC2=O)ccc1N1CCOCC1=O` (stereo not shown) [Example 123, N-({3-[3-Amino-4-(3-oxo-4-morpholinyl)phenyl]-2-oxo-1,3-oxazolidin-5-yl}-methyl)-5-chloro-2-thiophenecarboxamide], in experiment [1] (setting [4]), the ED50 turned out to be 3 mg/kg.

On human factor Xa (FXa), `CC(C)(C)OC(=O)NC1CCCN(c2ccc(N3CC(CNC(=O)c4ccc(Cl)s4)OC3=O)cc2F)C1` (stereo not shown) [Example 135] registered an IC50 of 1100 nM.

Regarding `NC1CCN(c2ccc(N3CC(CNC(=O)c4ccc(Cl)s4)OC3=O)cc2F)C1` (stereo not shown) [Example 126], the IC50 on human factor Xa (FXa) was found to be 13 nM. This IC50 lies about 85-fold lower than the previous one.

On human factor Xa (FXa), `O=C(NCC1CN(c2ccc(N3CCC3)c(F)c2)C(=O)O1)c1ccc(Cl)s1` (stereo not shown) [Example 132] returned an IC50 of 120 nM.

Take `O=C(NCC1CN(c2ccc(N3CCOCC3=O)c(F)c2)C(=O)O1)c1ccc(Cl)s1` (stereo not shown) [Example 95, 5-Chloro-N-({3-[3-fluoro-4-(3-oxo-4-morpholinyl)phenyl]-2-oxo-1,3-oxazolidin-5-yl}methyl)-2-thiophenecarboxamide]: in experiment [1] (setting [3]), the ED50 was determined as 3 mg/kg.

`O=C(NCC1CN(c2ccc(NS(=O)(=O)CCCCl)cc2)C(=O)O1)c1ccc(Cl)s1` (stereo not shown) [Example 159, 5-Chloro-N-{[3-(4-{[(3-chloropropyl)sulfonyl]amino}phenyl)-2-oxo-1,3-oxazolidin-5-yl]methyl}-2-thiophenecarboxamide] gave an IC50 at human factor Xa (FXa) (factor Xa inhibition) of 1700 nM.

As to `O=C(NC[C@H]1CN(c2ccc(N3CCOCC3=O)cc2)C(=O)O1)c1ccc(Cl)s1` [Example 44, 5-Chloro-N-({(5S)-2-oxo-3-[4-(3-oxo-4-morpholinyl)phenyl]-1,3-oxazolidin-5-yl}methyl)-2-thiophenecarboxamide], the ED50 in experiment [1] (setting [4]) turned out to be 3 mg/kg. Also, in experiment [2], the “Reduction in thrombus weight after oral treatment” value came to 22%, the “Statistical significance of the reduction in thrombus weight (Student's t-test)” value was “no effect (p > 0.05)” and the “Antithrombotic effect” value is “inactive”.

The compound `O=C(NCC1CN(c2ccc(N3CCCC3=O)cc2)C(=O)O1)c1cccs1` (stereo not shown) [Example 41, N-({2-oxo-3-[4-(2-oxo-1-pyrrolidinyl)phenyl]-1,3-oxazolidin-5-yl}methyl)-2-thiophenecarboxamide] gave a 50% inhibitory concentration (IC50) at human factor Xa (FXa) (factor Xa inhibition) of 1300 nM. In other words, the single-digit micromolar range.

For the compound `NCC1CN(c2ccc(N3CCCC3=O)cc2)C(=O)O1` (stereo not shown) [Example 151, 5-(Aminomethyl)-3-[4-(2-oxo-1-pyrrolidinyl)phenyl]-1,3-oxazolidin-2-one], at human factor Xa (FXa) (factor Xa inhibition), the IC50 worked out at 2000 nM.

For `O=C(NCC1CN(c2ccc(N3CCC(O)C3)c(F)c2)C(=O)O1)c1ccc(Cl)s1` (stereo not shown) [Example 133], at human factor Xa (FXa), the IC50 stood at 62 nM.

For the compound `COC(=O)[C@H](c1ccccc1Cl)N1CCc2sccc2C1` [Clopidogrel, clopidogrel, reference compound], in experiment [2], the “Reduction in thrombus weight after oral treatment” value is 28%, the “Statistical significance of the reduction in thrombus weight (Student's t-test)” value was “no effect (p > 0.05)” and the “Antithrombotic effect” value was “inactive”.

The IC50 is the concentration needed to halve the response being measured.

Values taken from patent publication US20040242660A1, “Substituted oxazolidinones for combinational therapy” (priority 2001, published 2004).
